# Experimental data from the NIST ThermoML archive (doi:10.1021/acs.jced.5b00778).
# Numbers after ± are expanded uncertainties.
# Experiment: mn = molality of the nth substance listed, in mol/kg
# Conditions: 298.15 K; for surface tension liquid-gas: Ring tensiometer; for electrical conductivity: 100 kPa, Liquid, Alternating current cell with electrodes
structure (smiles),measurement,setting,value
CCCCCCCCCCCCCCCCOCC(O)C[N+](C)(C)CCCCCCCC.[Br-] (stereo not given) + O,surface tension liquid-gas,m1 = 2.04e-06,69.09 ± 2.2 mN/m
same,surface tension liquid-gas,m1 = 2.63e-06,68.55 ± 2.1 mN/m
same,surface tension liquid-gas,m1 = 3.55e-06,61.94 ± 2.1 mN/m
same,surface tension liquid-gas,m1 = 3.8e-06,60.95 ± 2.1 mN/m
same,surface tension liquid-gas,m1 = 4.07e-06,55.95 ± 2.1 mN/m
same,surface tension liquid-gas,m1 = 4.37e-06,48.71 ± 2.1 mN/m
same,surface tension liquid-gas,m1 = 5.89e-06,44.65 ± 2.1 mN/m
same,surface tension liquid-gas,m1 = 7.94e-06,41.6 ± 2.1 mN/m
same,surface tension liquid-gas,m1 = 1.023e-05,37.64 ± 2.1 mN/m
same,electrical conductivity,m1 = 0.0067,5.6e-05 ± 6e-06 S/m
same,electrical conductivity,m1 = 0.0076,5.8e-05 ± 6e-06 S/m
same,electrical conductivity,m1 = 0.0086,6.4e-05 ± 8e-06 S/m
same,electrical conductivity,m1 = 0.0095,7.4e-05 ± 8e-06 S/m
same,electrical conductivity,m1 = 0.0105,7.7e-05 ± 8e-06 S/m
same,electrical conductivity,m1 = 0.0114,7.8e-05 ± 9e-06 S/m
same,electrical conductivity,m1 = 0.0124,9.3e-05 ± 1.1e-05 S/m
same,electrical conductivity,m1 = 0.0133,9.6e-05 ± 1.2e-05 S/m
same,electrical conductivity,m1 = 0.0143,0.000114 ± 1.2e-05 S/m
same,electrical conductivity,m1 = 0.0152,0.000111 ± 1.1e-05 S/m
same,electrical conductivity,m1 = 0.0162,0.000121 ± 1.4e-05 S/m
same,electrical conductivity,m1 = 0.0171,0.000132 ± 1.5e-05 S/m
same,electrical conductivity,m1 = 0.0181,0.000144 ± 1.5e-05 S/m
same,electrical conductivity,m1 = 0.019,0.000147 ± 1.6e-05 S/m
same,electrical conductivity,m1 = 0.0209,0.000168 ± 1.8e-05 S/m
same,electrical conductivity,m1 = 0.0219,0.000176 ± 1.9e-05 S/m
same,electrical conductivity,m1 = 0.0229,0.00019 ± 2.1e-05 S/m
same,electrical conductivity,m1 = 0.0238,0.000201 ± 2.1e-05 S/m
same,electrical conductivity,m1 = 0.0248,0.000212 ± 2.2e-05 S/m
CCCCCCCCCCCCCCOCC(O)C[N+](C)(C)CCCCCCCC.[Br-] (stereo not given) + O,surface tension liquid-gas,m1 = 3.388e-06,60.85 ± 2.1 mN/m
same,surface tension liquid-gas,m1 = 4.169e-06,59.07 ± 2.1 mN/m
same,surface tension liquid-gas,m1 = 5.012e-06,58.67 ± 2.1 mN/m
same,surface tension liquid-gas,m1 = 6.761e-06,54.53 ± 2.1 mN/m
same,surface tension liquid-gas,m1 = 8.511e-06,51.91 ± 2.1 mN/m
same,surface tension liquid-gas,m1 = 1.175e-05,47.9 ± 2.1 mN/m
same,surface tension liquid-gas,m1 = 1.514e-05,44.86 ± 2.1 mN/m
same,surface tension liquid-gas,m1 = 1.995e-05,41.5 ± 2.1 mN/m
same,surface tension liquid-gas,m1 = 2.512e-05,39.09 ± 2.1 mN/m
same,surface tension liquid-gas,m1 = 3.388e-05,36.16 ± 2.1 mN/m
same,surface tension liquid-gas,m1 = 4.571e-05,33.74 ± 2.1 mN/m
same,electrical conductivity,m1 = 0.009,0.000161 ± 1.9e-05 S/m
same,electrical conductivity,m1 = 0.0144,0.000255 ± 2.7e-05 S/m
same,electrical conductivity,m1 = 0.0198,0.000343 ± 3.6e-05 S/m
same,electrical conductivity,m1 = 0.0252,0.000427 ± 4.4e-05 S/m
same,electrical conductivity,m1 = 0.0306,0.000521 ± 5.3e-05 S/m
same,electrical conductivity,m1 = 0.036,0.000636 ± 6.4e-05 S/m
same,electrical conductivity,m1 = 0.0414,0.000683 ± 6.9e-05 S/m
CCCCCCCCCCCCCC[N+](C)(C)CC(O)COCCCCCCCCCC.[Br-] (stereo not given) + O,surface tension liquid-gas,m1 = 2.4e-07,70.44 ± 2.2 mN/m
same,surface tension liquid-gas,m1 = 2.82e-07,69.87 ± 2.2 mN/m
same,surface tension liquid-gas,m1 = 4.17e-07,69.41 ± 2.2 mN/m
same,surface tension liquid-gas,m1 = 5.62e-07,65.68 ± 2.1 mN/m
same,surface tension liquid-gas,m1 = 7.24e-07,57.18 ± 2.1 mN/m
same,surface tension liquid-gas,m1 = 8.51e-07,53.77 ± 2.1 mN/m
same,surface tension liquid-gas,m1 = 1.148e-06,48.14 ± 2.1 mN/m
same,surface tension liquid-gas,m1 = 1.413e-06,44.06 ± 2.1 mN/m
same,surface tension liquid-gas,m1 = 1.698e-06,40.95 ± 2.1 mN/m
same,surface tension liquid-gas,m1 = 2.291e-06,35.65 ± 2.1 mN/m
same,surface tension liquid-gas,m1 = 2.818e-06,33.63 ± 2.1 mN/m
same,electrical conductivity,m1 = 0.0013,2.8e-05 ± 9e-06 S/m
same,electrical conductivity,m1 = 0.0027,4.9e-05 ± 7e-06 S/m
same,electrical conductivity,m1 = 0.004,4.9e-05 ± 5e-06 S/m
same,electrical conductivity,m1 = 0.0053,5.8e-05 ± 9e-06 S/m
same,electrical conductivity,m1 = 0.0067,8e-05 ± 1.3e-05 S/m
same,electrical conductivity,m1 = 0.008,0.000102 ± 1.2e-05 S/m
same,electrical conductivity,m1 = 0.0093,0.000111 ± 1.2e-05 S/m
same,electrical conductivity,m1 = 0.0107,0.000117 ± 1.5e-05 S/m
same,electrical conductivity,m1 = 0.012,0.000157 ± 2e-05 S/m
same,electrical conductivity,m1 = 0.0133,0.00017 ± 1.7e-05 S/m
same,electrical conductivity,m1 = 0.0147,0.000166 ± 1.8e-05 S/m
same,electrical conductivity,m1 = 0.016,0.000201 ± 2.2e-05 S/m
same,electrical conductivity,m1 = 0.0174,0.000211 ± 2.3e-05 S/m
same,electrical conductivity,m1 = 0.0187,0.000243 ± 2.7e-05 S/m
same,electrical conductivity,m1 = 0.02,0.000261 ± 2.8e-05 S/m
same,electrical conductivity,m1 = 0.0214,0.000284 ± 3e-05 S/m
same,electrical conductivity,m1 = 0.0227,0.000297 ± 3.1e-05 S/m
same,electrical conductivity,m1 = 0.024,0.000319 ± 3.3e-05 S/m
same,electrical conductivity,m1 = 0.0254,0.00033 ± 3.4e-05 S/m
same,electrical conductivity,m1 = 0.0267,0.000361 ± 3.8e-05 S/m
same,electrical conductivity,m1 = 0.028,0.000376 ± 3.8e-05 S/m
CCCCCCCCCCCCOCC(O)C[N+](C)(C)CCCCCCCC.[Br-] (stereo not given) + O,surface tension liquid-gas,m1 = 1.047e-05,64.92 ± 2.1 mN/m
same,surface tension liquid-gas,m1 = 1.738e-05,60.07 ± 2.1 mN/m
same,surface tension liquid-gas,m1 = 2.089e-05,57.65 ± 2.1 mN/m
same,surface tension liquid-gas,m1 = 2.818e-05,53.97 ± 2.1 mN/m
same,surface tension liquid-gas,m1 = 3.548e-05,52.04 ± 2.1 mN/m
same,surface tension liquid-gas,m1 = 4.898e-05,48.46 ± 2.1 mN/m
same,surface tension liquid-gas,m1 = 6.31e-05,46.1 ± 2.1 mN/m
same,surface tension liquid-gas,m1 = 8.511e-05,42.5 ± 2.1 mN/m
same,surface tension liquid-gas,m1 = 0.0001047,39.79 ± 2.1 mN/m
same,surface tension liquid-gas,m1 = 0.0001479,36.43 ± 2.1 mN/m
same,surface tension liquid-gas,m1 = 0.0001905,33.42 ± 2 mN/m
same,electrical conductivity,m1 = 0.014,0.00023 ± 2.3e-05 S/m
same,electrical conductivity,m1 = 0.028,0.00034 ± 3.5e-05 S/m
same,electrical conductivity,m1 = 0.0561,0.00065 ± 6.5e-05 S/m
same,electrical conductivity,m1 = 0.0841,0.00105 ± 0.00011 S/m
same,electrical conductivity,m1 = 0.1121,0.00117 ± 0.00012 S/m
same,electrical conductivity,m1 = 0.1402,0.00141 ± 0.00014 S/m
same,electrical conductivity,m1 = 0.1682,0.00173 ± 0.00017 S/m
same,electrical conductivity,m1 = 0.1962,0.00195 ± 0.00019 S/m
same,electrical conductivity,m1 = 0.2243,0.00226 ± 0.00023 S/m
CCCCCCCCCCOCC(O)C[N+](C)(C)CCCCCCCC.[Br-] (stereo not given) + O,surface tension liquid-gas,m1 = 2.399e-05,63.84 ± 2.1 mN/m
same,surface tension liquid-gas,m1 = 3.388e-05,60.78 ± 2.1 mN/m
same,surface tension liquid-gas,m1 = 3.715e-05,59.62 ± 2.1 mN/m
same,surface tension liquid-gas,m1 = 7.413e-05,53.71 ± 2.1 mN/m
same,surface tension liquid-gas,m1 = 0.0001122,49.75 ± 2.1 mN/m
same,surface tension liquid-gas,m1 = 0.0001514,47 ± 2.1 mN/m
same,surface tension liquid-gas,m1 = 0.0001905,45.13 ± 2.1 mN/m
same,surface tension liquid-gas,m1 = 0.000263,41.95 ± 2.1 mN/m
same,surface tension liquid-gas,m1 = 0.0003715,39.03 ± 2.1 mN/m
same,surface tension liquid-gas,m1 = 0.0005248,35.86 ± 2.1 mN/m
same,surface tension liquid-gas,m1 = 0.0007413,33.29 ± 2 mN/m
same,electrical conductivity,m1 = 7.59e-05,0.00088 ± 8.8e-05 S/m
same,electrical conductivity,m1 = 0.0001518,0.00161 ± 0.00016 S/m
same,electrical conductivity,m1 = 0.000235,0.0023 ± 0.00023 S/m
same,electrical conductivity,m1 = 0.0003035,0.00316 ± 0.00032 S/m
same,electrical conductivity,m1 = 0.0004553,0.00439 ± 0.00044 S/m
same,electrical conductivity,m1 = 0.000535,0.00496 ± 0.0005 S/m
same,electrical conductivity,m1 = 0.000607,0.00573 ± 0.00057 S/m
same,electrical conductivity,m1 = 0.0007588,0.00697 ± 0.0007 S/m
same,electrical conductivity,m1 = 0.000835,0.00758 ± 0.00076 S/m
same,electrical conductivity,m1 = 0.0009105,0.00827 ± 0.00083 S/m
same,electrical conductivity,m1 = 0.001062,0.00937 ± 0.00094 S/m
